The supplement of paper PMC10307832

How the values were obtained:
Assay in all cases: relative viability (nuclei count vs DMSO), 5 days (fraction); higher = more cells survive
Bexarotene + Olaparib = compound: C=C(c1ccc(C(=O)O)cc1)c1cc2c(cc1C)C(C)(C)CCC2(C)C [Bexarotene] + O=C(c1cc(Cc2n[nH]c(=O)c3ccccc23)ccc1F)N1CCN(C(=O)C2CC2)CC1 [Olaparib] (partner 8 µM)
Method in brief: (§1)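 Relative viability divides the nuclei count in treated wells by that in vehicle wells. Lung cancer cell lines were seeded in 1536-well plates, dosed by pin tool the next day, and fixed and stained after 5 days in one step with final 0.05% Triton X-100, 1% formaldehyde and 1 ug/ml Hoechst. Dosing was a single drug or a fixed anchor-drug dose plus five library-drug doses (not always all listed) in √10 steps, and values are medians of duplicate plates imaged at 4×.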

Bexarotene + AZD7762 = compound: C=C(c1ccc(C(=O)O)cc1)c1cc2c(cc1C)C(C)(C)CCC2(C)C [Bexarotene] + NC(=O)Nc1cc(-c2cccc(F)c2)sc1C(=O)N[C@H]1CCCNC1 [AZD7762] (partner 0.2 µM)
Method in brief: as §1

Bexarotene + Lapatinib = compound: C=C(c1ccc(C(=O)O)cc1)c1cc2c(cc1C)C(C)(C)CCC2(C)C [Bexarotene] + CS(=O)(=O)CCNCc1ccc(-c2ccc3ncnc(Nc4ccc(OCc5cccc(F)c5)c(Cl)c4)c3c2)o1 [Lapatinib] (partner 2 µM)
Method in brief: as §1

Bexarotene + Decitabine = compound: C=C(c1ccc(C(=O)O)cc1)c1cc2c(cc1C)C(C)(C)CCC2(C)C [Bexarotene] + Nc1ncn([C@H]2C[C@H](O)[C@@H](CO)O2)c(=O)n1 [Decitabine] (partner 2 µM)
Method in brief: as §1

Cell Line | relative viability (Bexarotene + Olaparib; first compound 0.08 µM) | relative viability (Bexarotene + Olaparib; first compound 0.253 µM) | relative viability (Bexarotene + Olaparib; first compound 0.8 µM) | relative viability (Bexarotene + Olaparib; first compound 2.53 µM) | relative viability (Bexarotene + Olaparib; first compound 8 µM) | relative viability (Bexarotene + AZD7762; first compound 0.08 µM) | relative viability (Bexarotene + AZD7762; first compound 0.253 µM) | relative viability (Bexarotene + AZD7762; first compound 0.8 µM) | relative viability (Bexarotene + AZD7762; first compound 2.53 µM) | relative viability (Bexarotene + AZD7762; first compound 8 µM) | relative viability (Bexarotene + Lapatinib; first compound 0.08 µM) | relative viability (Bexarotene + Lapatinib; first compound 0.253 µM) | relative viability (Bexarotene + Lapatinib; first compound 0.8 µM) | relative viability (Bexarotene + Lapatinib; first compound 2.53 µM) | relative viability (Bexarotene + Lapatinib; first compound 8 µM) | relative viability (Bexarotene + Decitabine; first compound 0.08 µM) | relative viability (Bexarotene + Decitabine; first compound 0.253 µM) | relative viability (Bexarotene + Decitabine; first compound 0.8 µM) | relative viability (Bexarotene + Decitabine; first compound 2.53 µM) | relative viability (Bexarotene + Decitabine; first compound 8 µM)
201T | 0.837 | 0.823 | 0.777 | 0.919 | 0.709 | 0.796 | 0.612 | 0.714 | 0.591 | 0.514 | 1.01 | 0.945 | 1.03 | 1.02 | 0.997 | 0.828 | 0.858 | 0.746 | 0.781 | 0.692
A-427 | 0.716 | 0.781 | 0.654 | 0.743 | 0.728 | 0.79 | 0.71 | 0.736 | 0.691 | 0.688 | 1.03 | 0.997 | 0.929 | 0.997 | 1.04 | 0.57 | 0.461 | 0.435 | 0.477 | 0.533
ABC-1 | 0.827 | 0.839 | 0.478 |  | 0.631 | 0.729 | 0.797 | 0.747 | 0.667 | 0.876 | 0.914 | 1.38 | 1.14 | 1.16 | 1.09 | 1.21 | 0.927 | 1.12 |  | 1.09
BEN | 1.05 | 0.942 | 1 | 0.853 | 1.06 | 0.759 | 0.585 | 0.613 | 0.612 | 0.695 | 0.869 | 0.51 | 0.623 | 0.513 | 0.66 | 0.706 | 0.666 | 0.723 | 0.647 | 0.692
CAL-12T | 0.728 | 0.64 | 0.658 | 0.648 | 0.67 | 0.649 | 0.549 | 0.603 | 0.427 | 0.513 | 0.632 |  | 0.638 |  | 0.543 |  |  |  |  | 
COR-L23 | 0.344 | 0.365 | 0.323 | 0.373 | 0.301 |  |  |  |  |  | 1.24 | 0.921 | 0.976 | 0.976 | 0.879 | 0.47 | 0.455 | 0.438 | 0.452 | 0.416
COR-L 105 | 0.698 | 0.743 | 0.898 | 0.784 | 0.913 |  |  |  |  |  | 0.404 | 0.33 | 0.322 | 0.378 | 0.345 | 0.731 | 0.704 | 0.664 | 0.616 | 0.578
Calu-6 | 0.638 | 0.563 | 0.494 | 0.606 | 0.568 |  |  |  |  |  | 0.929 | 1.03 | 0.987 | 0.963 | 1.14 |  |  |  |  | 
ChaGo-K-1 | 0.411 | 0.413 | 0.408 | 0.395 | 0.42 | 0.934 | 0.828 | 0.813 | 0.832 | 0.873 |  |  |  |  |  | 0.57 | 0.512 | 0.509 | 0.489 | 0.497
EKVX | 0.838 | 0.993 | 0.947 | 0.946 | 0.948 | 0.804 | 0.848 | 0.822 | 0.828 | 0.634 | 0.202 | 0.186 | 0.227 | 0.204 | 0.19 | 0.299 | 0.338 | 0.309 | 0.172 | 0.332
EMC-BAC-2 | 0.522 | 0.514 | 0.504 |  | 0.515 | 1.17 | 1.09 | 1.06 |  | 1.08 | 0.923 | 0.884 | 0.812 | 0.841 | 0.887 | 1.1 | 0.948 | 0.924 |  | 0.943
EPLC-272H | 0.824 | 0.773 | 0.641 | 0.758 | 0.845 | 0.199 | 0.259 | 0.517 | 0.208 | 0.271 | 0.982 | 0.825 | 0.898 | 0.746 | 0.865 | 0.414 | 0.36 | 0.353 | 0.368 | 0.414
H3255 | 0.603 | 0.692 | 0.659 | 0.642 | 0.654 | 0.948 | 0.941 | 0.975 | 0.851 | 1.05 | 0.257 | 0.256 | 0.228 | 0.245 | 0.219 | 0.923 | 0.695 | 0.587 | 0.507 | 0.562
HARA | 0.752 | 0.838 | 0.925 | 0.731 | 0.715 | 0.336 | 0.272 | 0.412 | 0.303 | 0.262 | 0.747 | 0.839 | 0.684 | 0.77 | 0.706 | 0.618 | 0.637 | 0.535 | 0.633 | 0.514
HCC-15 | 0.666 | 0.703 | 0.721 | 0.654 | 0.689 | 1.23 | 1.17 | 1.27 | 1.1 | 1.44 | 0.93 | 0.984 | 0.944 | 0.833 | 0.846 | 0.762 | 0.72 | 0.611 | 0.588 | 0.568
HCC-44 | 1.07 | 1.11 | 1.05 | 1.03 | 1.05 | 0.978 | 1.12 | 0.927 | 0.967 | 0.964 | 1.06 | 1.06 | 0.919 | 0.924 | 0.879 | 1.07 | 0.96 | 0.907 | 1.01 | 0.897
HCC-78 | 0.756 | 0.984 | 0.769 | 0.883 | 0.835 | 0.638 | 0.391 | 0.542 | 0.554 | 0.638 | 0.724 | 0.7 | 0.591 | 0.637 | 0.668 | 0.735 | 0.705 | 0.673 | 0.528 | 0.749
HCC-366 | 0.346 | 0.494 | 0.381 | 0.388 | 0.369 | 0.412 | 0.397 | 0.284 | 0.279 | 0.358 | 0.984 | 1.06 | 1.06 | 1.04 | 1.06 | 0.36 | 0.376 | 0.339 | 0.346 | 0.289
